± gives the standard deviation of the averaged measurements.
Columns and labels:
[1] = tested on: Homo sapiens (human subject panel, olfactory perception); assay: perceived odor pleasantness rating (rating 0-100); higher = more pleasant
Protocol: (§1)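 Human olfactory psychophysics. 55 healthy subjects (after excluding 6 low performers) sniffed 1 mL of each odorant diluted in paraffin oil (vials, two dilutions per molecule, 20 molecules presented twice). Each subject rated intensity, pleasantness and familiarity on a 0-100 slider, starting at 50 and required to move. Ratings were given only when the subject reported detecting a smell; per-subject ratings are averaged over subjects.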

[2] = tested on: Homo sapiens (human subject panel, olfactory perception); assay: perceived odor intensity rating (rating 0-100); higher = stronger perceived smell
Protocol: as §1

[3] = tested on: Homo sapiens (human subject panel, olfactory perception); assay: perceived odor familiarity rating (rating 0-100); higher = more familiar
Protocol: as §1

[4] = odor dilution in paraffin oil: 1/1,000
[5] = odor dilution in paraffin oil: 1/100,000
[6] = odor dilution in paraffin oil: 1/10
[7] = odor dilution in paraffin oil: 1/10,000,000

Row | Compound | perceived odor pleasantness rating [1, 4] | perceived odor pleasantness rating [1, 5] | perceived odor intensity rating [2, 4] | perceived odor intensity rating [2, 5] | perceived odor familiarity rating [3, 4] | perceived odor familiarity rating [3, 5] | perceived odor pleasantness rating [1, 6] | perceived odor intensity rating [2, 6] | perceived odor familiarity rating [3, 6] | perceived odor pleasantness rating [1, 7] | perceived odor intensity rating [2, 7] | perceived odor familiarity rating [3, 7]
1 | COc1cccc(C=O)c1 [m-Anisaldehyde] | 53 ± 24 | 54 ± 25 | 48.7 ± 31 | 12.2 ± 19 | 47.4 ± 29 | 41.3 ± 30 | – | – | – | – | – | –
2 | CC[C@H](C)O [(S)-( + )-2-butanol] | 50.2 ± 22 | 50.7 ± 21 | 16.4 ± 22 | 24.7 ± 27 | 33.1 ± 30 | 40.9 ± 30 | – | – | – | – | – | –
3 | CC=Cc1ccc(OC(C)=O)c(OC)c1 [isoeugenol acetate] | 66.8 ± 25 | – | 46.1 ± 28 | – | 58.8 ± 28 | – | 58.3 ± 26 | 57.6 ± 30 | 57.1 ± 31 | – | – | –
4 | c1cscn1 [Thiazole] | 43.2 ± 24 | 45.5 ± 21 | 25.1 ± 27 | 18.8 ± 22 | 41.3 ± 29 | 27.2 ± 25 | – | – | – | – | – | –
5 | CCCCCCCCCCCCO [Lauryl alcohol] | 43 ± 26 | – | 24.8 ± 31 | – | 32 ± 30 | – | 35.8 ± 25 | 64.6 ± 28 | 50.1 ± 29 | – | – | –
6 | CC(C)c1ccc(CO)cc1 [4-Isopropylbenzyl alcohol] | 40.4 ± 25 | – | 31.9 ± 32 | – | 33.1 ± 29 | – | 31.8 ± 23 | 71.6 ± 22 | 46.4 ± 31 | – | – | –
7 | COC1=C(C)OC(C)C1=O (stereo not given) [2,5-Dimethyl-4-methoxy-3(2H)-furanone] | 26 ± 19 | 28.2 ± 23 | 74.8 ± 24 | 56.3 ± 31 | 45.4 ± 33 | 44.1 ± 28 | – | – | – | – | – | –
8 | Sc1ccccc1 [Benzenethiol] | – | 24.6 ± 23 | – | 63.4 ± 34 | – | 45.1 ± 30 | – | – | – | 41.9 ± 24 | 13 ± 22 | 31.3 ± 28
9 | CCCCCC(=O)CC [3-octanone] | 50.9 ± 31 | 53.3 ± 23 | 69.7 ± 25 | 26 ± 27 | 56.4 ± 28 | 35.9 ± 30 | – | – | – | – | – | –
10 | Cc1nc(C)c(C)s1 [2,4,5-Trimethylthiazole] | – | 33.8 ± 26 | – | 67.9 ± 26 | – | 48.4 ± 31 | – | – | – | 44.2 ± 27 | 35.2 ± 31 | 46.4 ± 31
11 | CSSSC [Dimethyl trisulfide (replicate)] | – | 18.4 ± 22 | – | 80.1 ± 22 | – | 59.2 ± 32 | – | – | – | 26.5 ± 23 | 62.9 ± 29 | 50.5 ± 33
12 | CC1=CCC2CC1C2(C)C (stereo not drawn) [alpha-pinene] | 45.6 ± 26 | 54.4 ± 21 | 61.4 ± 26 | 27.9 ± 30 | 46.6 ± 31 | 41.4 ± 29 | – | – | – | – | – | –
13 | CCCCCCCCCOC(C)=O [Nonyl acetate] | 39.9 ± 19 | – | 37.1 ± 28 | – | 39 ± 30 | – | 34.1 ± 27 | 77.8 ± 18 | 46.8 ± 29 | – | – | –
14 | CCC1(O)C2(C)CCC(C2)C1(C)C (stereo not given) [2-Ethylfenchol] | 37.2 ± 27 | 45.5 ± 25 | 73.6 ± 27 | 39.1 ± 34 | 58.9 ± 33 | 47.7 ± 35 | – | – | – | – | – | –
15 | COC(=O)c1ccccc1OC [Methyl 2-methoxybenzoate] | 48.1 ± 26 | 45.9 ± 25 | 47.5 ± 31 | 20.6 ± 24 | 40.8 ± 31 | 37.5 ± 28 | – | – | – | – | – | –
16 | COc1ccccc1O [Guaiacol (replicate)] | – | 37.6 ± 25 | – | 67.4 ± 29 | – | 47.2 ± 30 | – | – | – | 36.9 ± 19 | 54.8 ± 28 | 44 ± 30
17 | O.O.O=P([O-])([O-])O.[Na+].[Na+] [Sodium phosphate dibasic] | 46.2 ± 26 | – | 24.1 ± 25 | – | 31.5 ± 24 | – | 63.4 ± 26 | 27.2 ± 27 | 40.5 ± 32 | – | – | –
18 | C=C(C)[C@@H]1CC[C@@H](C)C[C@H]1O [(-)-Isopulegol] | 45.1 ± 24 | – | 24.4 ± 27 | – | 37.8 ± 32 | – | 56.9 ± 27 | 81.1 ± 17 | 73.2 ± 29 | – | – | –
19 | CC(C)COC(=O)c1ccccc1 [Isobutyl benzoate] | 49 ± 26 | – | 36.7 ± 31 | – | 41.1 ± 29 | – | 47.6 ± 29 | 78.7 ± 20 | 53.3 ± 30 | – | – | –
20 | CCCC(C)O (stereo not given) [2-pentanol] | 35.5 ± 26 | 42.6 ± 21 | 50.2 ± 34 | 25.7 ± 23 | 41.8 ± 30 | 38.9 ± 31 | – | – | – | – | – | –
21 | CCO [ethanol] | 60.9 ± 23 | 49.6 ± 23 | 19.5 ± 28 | 14.2 ± 18 | 41.4 ± 31 | 34.1 ± 28 | – | – | – | – | – | –
22 | O=C(OCCc1ccccc1)c1ccco1 [Phenethyl 2-furoate] | 58.7 ± 25 | 50.6 ± 24 | 44.8 ± 31 | 24.1 ± 30 | 52.4 ± 37 | 40.5 ± 34 | – | – | – | – | – | –
23 | COc1ccccc1OC(=O)Cc1ccccc1 [Guaiacyl phenylacetate] | 37.2 ± 28 | – | 60.8 ± 28 | – | 45.1 ± 32 | – | 42.2 ± 29 | 71.5 ± 22 | 58.5 ± 28 | – | – | –
24 | CCCCCCCC(=O)OCCC(C)C [Isoamyl octanoate] | 57.6 ± 22 | – | 24.3 ± 28 | – | 45.4 ± 32 | – | 50 ± 25 | 62.8 ± 29 | 45.2 ± 30 | – | – | –
25 | CC1CCC(=O)CC1 [4-Methylcyclohexanone] | 36.9 ± 25 | 64.6 ± 20 | 60.9 ± 31 | 32.5 ± 28 | 46 ± 32 | 49.2 ± 28 | – | – | – | – | – | –
26 | O=Cc1ccc2c(c1)OCO2 [piperonal] | 72 ± 20 | – | 42.5 ± 29 | – | 54.6 ± 30 | – | 70.9 ± 23 | 69.3 ± 22 | 64.5 ± 27 | – | – | –
27 | CCOC(=O)/C=C/c1ccccc1 [ethyl cinnamate] | 54.8 ± 26 | 63.1 ± 24 | 61.5 ± 29 | 55.2 ± 27 | 43.8 ± 29 | 43.3 ± 27 | – | – | – | – | – | –
28 | CCC(=O)OCCc1ccccc1 [Phenethyl propionate] | 54.6 ± 27 | 52.6 ± 25 | 49.9 ± 34 | 26.4 ± 27 | 54.6 ± 32 | 51.1 ± 30 | – | – | – | – | – | –
29 | COc1ccccc1S [2-Methoxythiophenol] | – | 15.7 ± 23 | – | 88.2 ± 13 | – | 40.6 ± 34 | – | – | – | 52.7 ± 24 | 25.8 ± 22 | 37.6 ± 30
30 | CCC(=O)OC/C=C/c1ccccc1 [trans-Cinnamyl propionate] | 50.8 ± 23 | 46.9 ± 24 | 46.3 ± 30 | 23.7 ± 29 | 45.5 ± 29 | 36.7 ± 28 | – | – | – | – | – | –

Reference: the supplement of paper PMC4977894
